Assay results reported in ChEMBL document CHEMBL5550125, “Molecular basis of N-glycan recognition by pradimicin a and its potential as a SARS-CoV-2 entry inhibitor” (Bioorg Med Chem, 2024).
pIC50: −log10 of the molar value. Calls of active or inactive are those of the source. No cut-off for these calls is given here.

Key:
[1] = Binding affinity to Pradimicin A assessed as suppression of pradimicin A induced growth inhibition of Candida rugosa AJ14513 by measuring minimum antagonistic concentration measured after 48 hrs by visual analysis
[2] = Induction of Pradimicin-FA1 aggregation assessed as concentration required to induce 50% aggregation incubated for 15 mins and further incubated for 30 mins at room temperature by RP-HPLC analysis
[3] = Binding affinity to Pradimicin A assessed as pradimicin A/Ca2+/compound ternary complex formation by measuring molar ratio at 50 umol incubated at 60 degreeC for 15 mins and room temperature for 1 hr in presence of CaCl2 and further incubated at 4 degreeC for 1 hr by coprecipitation based 1H-NMR analysis; settings: dose 50.0 µmol, time 2.25 hrs
Calu-3 = test: Cytotoxicity against human Calu-3 cells infected with SARS-CoV-2 JPN/NGS/SC-1/2020 assessed as reduction in cell viability at 0.3 to 100 uM pretreated with cells for 1 hr followed by viral infection and measured after 3 days; assay type: toxicity, cell-based; settings: calu-3, 73 h, dose 0.3-100 µM
SARS-CoV-2 [4] = test: Antiviral activity against SARS-CoV-2 JPN/NGS/SC-1/2020 infected in human Calu-3 cells assessed as inhibition of viral infection pretreated with cells for 1 hr followed by viral infection and measured after 3 days by immunofluorescence analysis; assay type: functional, organism-based; settings: Severe acute respiratory syndrome coronavirus 2, JPN/NGS/SC-1/2020, Calu-3
SARS-CoV-2 [5] = test: Antiviral activity against SARS-CoV-2 JPN/NGS/SC-1/2020 infected in human Calu-3 cells assessed as inhibition of viral infection at 6.25 uM pretreated with cells for 1 hr in presence of (2S,3S,4S,5R,6R)-4-(((2S,3R,4S,5S,6R)-3,4,5-trihydroxy-6-(hydroxymethyl)tetrahydro-2H-pyran-2-yl)oxy)-6-((((2S,3S,4S,5S,6R)-3,4,5-trihydroxy-6-(hydroxymethyl)tetrahydro-2H-pyran-2-yl)oxy)methyl)tetrahydro-2H-pyran-2,3,5-triol followed by viral infection and measured after 3 days by immunofluorescence analysis; assay type: functional, organism-based; settings: Severe acute respiratory syndrome coronavirus 2, time 73.0 hrs
SARS-CoV-2 [6] = test: Antiviral activity against SARS-CoV-2 JPN/NGS/SC-1/2020 infected in human Calu-3 cells assessed as inhibition of viral infection at 6.25 uM pretreated with cells for 1 hr followed by viral infection and measured after 3 days by immunofluorescence analysis relative to control; assay type: functional, Severe acute respiratory syndrome coronavirus 2; design: scale not given: the % may be the effect or the level left; settings: time 73 hrs
Diutina rugosa = test: Antifungal activity against Candida rugosa AJ14513 assessed as inhibition of fungal growth at 32 ug/ml measured after 48 hrs by visual analysis relative to control; assay type: functional

SMILES | MAC [1] | AC50 [2] | other results
CO[C@H]1O[C@H](CO)[C@@H](O)[C@H](O)[C@@H]1O[C@H]1O[C@H](CO)[C@@H](O)[C@H](O)[C@@H]1O | 16 mM | > 10 mM | 
CO[C@H]1O[C@H](CO[C@H]2O[C@H](CO)[C@@H](O)[C@H](O)[C@@H]2O[C@H]2O[C@H](CO)[C@@H](O)[C@H](O)[C@@H]2O)[C@@H](O)[C@H](O[C@H]2O[C@H](CO)[C@H](O)[C@@H](O)[C@@H]2O[C@@H]2O[C@H](CO)[C@@H](O)[C@H](O)[C@H]2O)[C@@H]1O | 1 mM | 0.07 mM | 
CO[C@@H]1O[C@H](CO[C@]2(C(=O)O)C[C@H](O)[C@@H](NC(C)=O)[C@H]([C@@H](O)[C@H](O)CO)O2)[C@H](O)[C@H](O)[C@H]1O | > 64 mM | > 10 mM | 
CO[C@H]1O[C@H](CO)[C@@H](O[C@@H]2O[C@H](CO)[C@H](OC)[C@H](O)[C@H]2NC(C)=O)[C@H](O)[C@@H]1NC(C)=O | > 64 mM | > 10 mM | 
CO[C@H]1O[C@H](CO)[C@@H](O)[C@H](O)[C@@H]1O[C@@H]1O[C@H](CO)[C@@H](OC)[C@H](O)[C@@H]1NC(C)=O | > 64 mM | > 10 mM | 
OC[C@H]1O[C@H](OC[C@H]2O[C@H](O)[C@@H](O)[C@@H](O[C@@H]3O[C@H](CO)[C@@H](O)[C@H](O)[C@H]3O)[C@@H]2O)[C@@H](O)[C@@H](O)[C@@H]1O | 1 mM | 0.06 mM | Ratio [3]: 0.52
CO[C@H]1O[C@H](CO[C@H]2O[C@H](CO)[C@@H](O)[C@H](O)[C@H]2O)[C@@H](O)[C@H](O[C@@H]2O[C@H](CO)[C@@H](O)[C@H](O)[C@H]2O)[C@@H]1O | 16 mM | > 10 mM | 
CO[C@H]1O[C@H](CO[C@H]2O[C@H](CO)[C@@H](O)[C@H](O)[C@@H]2OC)[C@@H](O)[C@H](O[C@@H]2O[C@H](CO)[C@@H](O)[C@H](O)[C@H]2OC)[C@@H]1O | > 64 mM | > 10 mM | 
CN[C@@H]1[C@H](O[C@@H]2OC[C@@H](O)[C@H](O)[C@H]2O)[C@@H](O)[C@H](O[C@H]2c3cc(C)c(C(=O)N[C@H](C)C(=O)O)c(O)c3-c3c(cc4c(c3O)C(=O)c3cc(OC)cc(O)c3C4=O)[C@@H]2O)O[C@@H]1C [PRADIMICIN A] |  |  | Activity (Calu-3): Non-Toxic; pIC50 (SARS-CoV-2 [4]): 5.92; Activity (SARS-CoV-2 [5]): inactive; Activity (SARS-CoV-2 [6]): ~100%; inhibition at 32 µg/mL (Diutina rugosa): 100%
CO[C@H]1O[C@H](CO)[C@@H](O)[C@H](O)[C@@H]1O | 16 mM | 5 mM | Ratio [3]: 0.96
CO[C@H]1O[C@H](CO)[C@@H](O)[C@H](O)[C@@H]1O[C@@H]1O[C@H](CO)[C@@H](O)[C@H](O)[C@@H]1NC(C)=O | > 64 mM | > 10 mM | 
CO[C@H]1O[C@H](CO)[C@@H](O)[C@H](O)[C@H]1O |  |  | Ratio [3]: 0.05
CO[C@H]1O[C@H](CO)[C@@H](O[C@@H]2O[C@H](CO)[C@H](O)[C@H](O)[C@H]2O)[C@H](O)[C@@H]1NC(C)=O | > 64 mM | > 10 mM | 
CO[C@H]1O[C@H](CO[C@H]2O[C@H](CO)[C@@H](O)[C@H](O)[C@@H]2O)[C@@H](O)[C@H](O[C@@H]2O[C@H](CO)[C@@H](O)[C@H](O)[C@H]2O)[C@@H]1O | 16 mM | > 10 mM | 
